The source of these data is patent US20110224245A1, “Treatment Of Neurological Disorders Using Huperzine” (President and Fellows of Harvard College, priority 2008, published 2011).

The subject of data set [1] is mice. Nature of the data set: Toxicity / minimal motor impairment after ICV administration (6 Hz screen). The class given is in vivo. Conditions: for Toxic (animals toxic over number tested): 0.5 h. The source says:
Doses listed as pmol/5 microliter injection volume for ICV. TD50 at 0.5 hrs: 36.15 (9.35-121.74) 1.57+/−0.51.
Minimal toxicity was identified in mice by the rotorod procedure.

Data set [2] can be described thus: Solubility in methyl cellulose solvent. In kind it is physicochemical. The source says:
(§1) Huperzine A was either administered in a soluble form (SOL) or as a suspension (SUS). […] To produce the suspension, huperzine A was ground to a powder using a mortar and pestle, and the powder mixed with methyl cellulose. This mixture was then sonicated to produce a suspension that was subsequently administered to mice in the weight range of 19.0 to 25.5 g. The data are presented as the number of mice showing an effect (N) from the full number of mice (F) tested. […] At four hours post administration, all three mice were protected (i.e., 100% were protected).

For data set [3], the system named is Subcutaneous Metrazol (pentylenetetrazol; SCMET) seizures. Nature of the data set: Subcutaneous Metrazol (SCMET / scPTZ) model, mice i.p. In kind it is in vivo. As to conditions: (MJ) animals displaying myoclonic jerks. How it is done: Huperzine A was evaluated in the Maximal Electroshock (MES) and Subcutaneous Metrazol (pentylenetetrazol; SCMET) models of generalized tonic-clonic and myoclonic seizures, respectively in mice and rats.
The Subcutaneous Metrazole (SCMET) model is also an art-recognized test for therapeutic agents for epilepsy, and in particular, is useful for investigating petite mal seizures. A Metrazole dose of 85 mg/kg was administered subcutaneously to induce seizures. Huperzine was then administered and the animals observed.
as §1
Male, 18-25 g CF1 mice and 100-125 g Sprague-Dawley rats (Charles River Laboratories, Wilmington, Mass.) were used as the experimental animals. Animals were pretreated intraperitoneally (i.p.) with increasing doses of HupA and tested at various times after administration for protection against tonic extension (MES test), minimal clonic (s.c. PTZ test), limbic (6 Hz), or secondarily generalized (kindled rat) seizures. Seizure testing was carried out as follows. […] The ability of the test substance to prevent seizures induced by 6 Hz corneal stimulation (32 mA, 3 sec duration) was assessed at various times after i.p. administration of 1 mg/kg HupA For assessment of hippocampal kindling, HupA (1 mg/kg, i.p.) was administered. The ability of the compound to block the expression of hippocampal kindled seizures was evaluated using the rapid hippocampal kindling model (White et al., 2002). […]

Data set [4] deals with formalin-induced paw-licking. The experiment in a line: Formalin test (paw licking) in mice. The class given is in vivo. How it is done: The formalin test for antinociceptive activity is described in numerous publications, e.g., Hunskaar, S., O. B. Fasmer, and K. Hole, J. Neurosci. […] The formalin test is accepted as an art recognized model of persistent clinical pain.
Male Swiss Webster NIH mice (20-30 g; Harlan, San Diego, Calif.) were used in the experiments described herein. Food was withdrawn on the day of experiment. Mice were placed in Plexiglass jars for at least 1 hour to accommodate to the environment. Following the accommodation period, mice were weighed and given either a huperzine compound administered intraperitoneal (i.p.) or oral (p.o.), or the appropriate volume of vehicle (10% Tween-80). Fifteen minutes after the i.p. dosing, and 30 minutes after the p.o. dosing mice were injected with formalin (20 μL of 5% formaldehyde solution in saline) into the dorsal surface of the right hind paw. Mice were transferred to the Plexiglass jars and monitored for the amount of time spent licking or biting the injected paw. Periods of licking and biting were recorded in 5 minute intervals for 40 minutes after the formalin injection. All experiments were done in a blinded manner. The early phase (acute) of the formalin response is measured as licking/biting between 0-5 minutes, and the late phase (inflammatory) is measured from 10-40 minutes. Differences between vehicle and drug treated groups are analyzed by one-way analysis of variance (ANOVA). A P value<0.05 is considered significant.
Fifteen minutes after the i.p. dosing, mice were injected with formalin (20 μL of 5% formaldehyde solution in saline) into the dorsal surface of the right hind paw. Periods of licking and biting were recorded in 5 minute intervals for 40 minutes after the formalin injection as shown below in Tables 1 and 2. All experiments were done according to the art-recognized Anticonvulsant Screening Program of the NINDS at the University of Utah.
Duration of paw licking in the tables below is expressed in seconds.

As to `C/C=C1\[C@H]2C=C(C)C[C@]1(N)c1ccc(=O)[nH]c1C2` [Huperzine A], the body temperature entry in data set [1] is recorded as “Dose-dependent drop in body temperatures”. Besides, the “Toxic (animals toxic over number tested)” value in data set [1] (dose 0.01 (pmol/5 microliter; head mg/kg)) is 0/8 Toxic; in data set [1] (dose 1 (pmol/5 microliter; head mg/kg)), 0/8 Toxic; in data set [1] (dose 10 (pmol/5 microliter; head mg/kg)) it was 2/8 toxic; in data set [1] (dose 100 (pmol/5 microliter; head mg/kg)), 6/8 Toxic; in data set [1] (dose 1000 (pmol/5 microliter; head mg/kg)) it was 4/4 toxic. Besides, in data set [1] (0.5 hrs, (95% interval in brackets)), the TD50 is 36.15 (9.35-121.74) pmol/5 microliter injection volume. In addition, the Response comment result is on record as “Minimal motor impairment” in data set [1] (dose 10, 0.25 h); “Minimal motor impairment” in data set [1] (dose 10, 0.5 h); “Minimal motor impairment” in data set [1] (dose 100, 0.25 h); “Minimal motor impairment” in data set [1] (dose 100, 0.5 h); “Minimal motor impairment” in data set [1] (dose 100, 1 h). The “solubility in the methyl cellulose solvent” value in data set [2] (at concentrations of 0.1-0.3 mg/kg) is listed as “readily soluble”; in data set [2] (at higher concentrations (administered as suspension)), “not soluble”. Moreover, the “SCMET N/F (mice showing an effect / mice tested)” value in data set [3] (1 mg/kg i.p., SOL, 0.5 h) is 3/5 (MJ)^1; in data set [3] (3 mg/kg i.p., SUS, 0.5 h) it was 1/1 (MJ); in data set [3] (10 mg/kg i.p., SUS, 4.0 h) it was 1/1 (MJ). Besides, the “Area Under the Curve, % of Control” value in data set [4] (0.5 mg/kg i.p., Acute phase) is 2.8%; in data set [4] (0.5 mg/kg i.p., Inflammatory phase), 0.0%; in data set [4] (1 mg/kg i.p., Acute phase) it was 0.0%; in data set [4] (1 mg/kg i.p., Inflammatory phase) it was 0.0%. In addition, the “inhibition of phase 1 (acute) pain response” value in data set [4] (1 mg/kg i.p.) is recorded as “complete inhibition”. Also, the “inhibition of phase 2 (inflammatory) pain response” value in data set [4] (1 mg/kg i.p.) is “complete inhibition”.
